How the values were obtained:
[1] = biological target: His6-avi-MBP-tagged POLE2; test: Single-point nHU-MS with recombinant His6-avi-MBP-POLE2 bait, Jurkat extract; assay type: binding, human; settings: significant apparent affinity of endogenous prey protein for POLE2 bait; single-point nHU-MS; Figure S11
Text: So far, our study only focused on a few hand-picked NPF motifs and studied them as short synthetic peptides. However, many other proteins may be present in the proteome that could bind to POLE2 and their putative NPF motifs are embedded in their natural structures that can greatly affect their binding properties. To investigate interactions between POLE2 and intact, full length proteins proteome-wide, we used nHU-MS experiments with recombinant His6-avi-MBP-tagged POLE2 as bait and purified His6-avi-MBP as a control. Even though we are aware that this recombinant POLE2 may bind to NPF motifs with a somewhat altered affinity, we assumed that this would affect all NPF motif-mediated interactions equally, allowing an unbiased affinity ranking of all identified partners. Single point nHU measurements were performed at 26 μM POLE2 concentration and the recovered supernatant was measured by label free proteomic MS measurements (Fig. 3A, Supplementary Figs. 8A, 9, Supplementary Data 1).
Single-point nHU experiments with protein baits were carried out nearly identically with two key modifications. First, the resin saturation step was carried out by mixing 50 μl streptavidin resin with 0.5−1 ml 50 μM biotinylated protein solution and the mixture was incubated for 1.5 h at 4 °C with constant agitation. Second, instead of using estimated bait concentrations, we measured it experimentally. An extra aliquot of resin stock was prepared alongside the nHU samples that were identically processed that were used to eluate the immobilized proteins under harsh conditions, in order to experimentally quantify the Cbait by using densitometry of Coomassie stained SDS-PAGE that included a protein calibration series. For this, 50 μl bait-saturated resin aliquots were mixed with 200 μl 4x Laemmli Sample Buffer (120 mM Tris-HCl pH 7, 8% SDS, 100 mM DTT, 32% glycerol, 0.004% bromphenol blue, 1% β-mercaptoethanol), instead of cell extract. After 15 min incubation at 95 °C, these samples were analyzed by SDS-PAGE using protein calibration standard, made from recombinant MBP. Densitometry was carried out after Coomassie staining on raw Tif images by using Fiji ImageJ 1.53c and experimental bait concentration were determined by adjusting for molecular weight differences between MBP and MBP-POLE2 constructs.
Samples were digested overnight at 37 °C.

[2] = system: endogenous proteins of Jurkat extract; test: Single-point nHU-MS with biotinylated NPF motif peptide baits, proteome-wide; assay type: binding, human; settings: FigureS2 Volcano; prey FBXO3
Text: To identify the partners of NPF motifs, we used the native holdup (nHU) assay that was recently developed by our team (Fig. 1B). The holdup approach has been extensively used to determine equilibrium dissociation constants of transient interactions mediated by PDZ and SH3 domains, 14-3-3, and human papilloma virus E6 proteins, and even nucleic acid-protein interactions[7],[30]–[35]. In the nHU experiments, a purified bait molecule, or a control compound, is immobilized on a resin at high concentration (typically 10 μM, or higher) and these resin stocks are subsequently mixed with dilute cell extracts. […] This liquid phase contains the unbound prey molecules at near binding equilibrium that can be quantified using selective and quantitative analytical approaches, such as mass spectrometry. Therefore, proteins that interact with the bait molecule will appear to be depleted in the solvent phase and by measuring its relative concentration compared to the control nHU experiment, the degree of binding (θ) can be determined that can be converted to apparent steady-state dissociation constants, according to:1 θ=1−Ifree/Itot=Cbait/Cbait+Kapp where Itot and Ifree are the measured total and bait-depleted equilibrium mass spectrometry total ion intensities of prey proteins, Cbait is the bait molecule concentration and Kapp is the apparent dissociation constant. […]

POLE = test: nHU-MS peptide bait, prey POLE; settings: FigureS2 Volcano
EHD1 = biological target: T1, EHD1 (Homo sapiens, UniProt Q9H4M9); test: nHU-MS peptide bait, prey EHD1; settings: FigureS2 Volcano; prey EHD1
T1 sequence (Q9H4M9 1-534): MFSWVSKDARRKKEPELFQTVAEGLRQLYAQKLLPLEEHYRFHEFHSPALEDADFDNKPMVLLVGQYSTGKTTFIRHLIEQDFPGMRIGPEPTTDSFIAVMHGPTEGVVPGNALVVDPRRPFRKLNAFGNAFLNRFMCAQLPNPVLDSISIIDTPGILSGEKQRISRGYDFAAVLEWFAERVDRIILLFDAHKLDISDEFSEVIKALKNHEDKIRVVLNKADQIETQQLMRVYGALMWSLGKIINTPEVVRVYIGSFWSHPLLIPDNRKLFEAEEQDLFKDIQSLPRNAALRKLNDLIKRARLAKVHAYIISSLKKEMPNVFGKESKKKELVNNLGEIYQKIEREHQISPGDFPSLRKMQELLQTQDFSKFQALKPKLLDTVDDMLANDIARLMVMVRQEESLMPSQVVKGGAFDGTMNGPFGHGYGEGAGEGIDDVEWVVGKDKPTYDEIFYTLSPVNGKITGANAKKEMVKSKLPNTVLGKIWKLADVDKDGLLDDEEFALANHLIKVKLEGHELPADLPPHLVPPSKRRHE

TSETSK [SYNJ1] gave a pKapp_sign [1] of 4.4418, a log2FC [2] of -0.5002 and a log2FC (POLE) of -0.4452. The “-log10P” value (EHD1) was 14.1958 and the log2FC (EHD1) was -0.4973.

From PMC12808100, “The non-catalytic DNA polymerase ε subunit is an NPF motif recognition protein” (Nature Communications, 2025)
